Marks after values point to notes of the source that are not given here.
assay: logP determination via retention times, calibrated with unbranched alkan-2-ones; format: physicochemical; conditions: HPLC on reversed-phase C 18, EEC Directive 79/831 Annex V.A8; method *: 40° C., 0.1% aqueous formic acid and acetonitrile, linear gradient 10% to 95% acetonitrile

Row | logP | Structure (SMILES)
1 | 1.68* | CC(=O)Nc1ccc(Nc2ncc(Br)c(NCC3CC3)n2)cc1Cl [compound 479]
2 | 2.02* | CN(C(=O)C(C)(C)C)c1ccc(Nc2ncc(Cl)c(NCC3CC3)n2)cc1 [compound 525]
3 | 1.59* | CN(C)C(=O)c1ccc(Nc2ncc(Cl)c(NCC3CC3)n2)cc1 [compound 509]
4 | 2.67* | Clc1ccc(Nc2ncc(Br)c(NCC3CC3)n2)cc1 [compound 474]
5 | 1.68* | CC(=O)Nc1ccc(Nc2ncc(Cl)c(NCC3CC3)n2)cc1Cl [compound 505]
6 | 1.56* | O=C1CCCN1c1cccc(Nc2ncc(Cl)c(NCC3CC3)n2)c1 [compound 520]
7 | 1.53* | COc1cc(Nc2ncc(Cl)c(NCC3CC3)n2)ccc1NC(C)=O [compound 503]

same assay, conditions: HPLC on reversed-phase C18, method **: 43° C.; mobile phase 0.1% aqueous phosphoric acid and acetonitrile; linear gradient 10% to 95% acetonitrile

Row | logP | Structure (SMILES)
8 | 2.05** | CC(C)(C)NS(=O)(=O)Cc1cccc(Nc2ncc(Cl)c(NC3CC3)n2)c1 [compound 327]
9 | 0.87** | Cc1cc(Nc2ncc(Cl)c(NC3CC3)n2)c(C)cc1N [compound 313]

same assay, conditions: HPLC on reversed-phase C18, method *: 40° C., 0.1% aqueous formic acid and acetonitrile, linear gradient 10% to 95% acetonitrile

Row | Structure (SMILES) | logP
10 | COC(=O)Nc1ccc(Nc2ncc(Cl)c(NC(C)C3CC3)n2)cc1 (centres unmarked) [compound 168] | 1.64*
11 | CC1COC(=O)N1c1ccc(Nc2ncc(Br)c(NCC3CC3)n2)cc1 (centres unmarked) [compound 118] | 1.72*
12 | COC(=O)Nc1ccc(Nc2ncc(Cl)c(NCC3CC3)n2)cc1 [compound 153] | 1.44*
13 | Oc1ccc(Nc2ncc(Br)c(NC3CC3)n2)cc1 [compound 114] | 1.17*
14 | O=C1C=CC(=O)N1c1ccc(Nc2ncc(Cl)c(NC3CC3)n2)cc1 [compound 156] | 1.58*

More lines, now with the values ahead:

Row | logP | Structure (SMILES)
15 | 2.4* | COC(=O)c1ccc(Nc2ncc(Br)c(NC3CC3)n2)cc1 [compound 762]
16 | 4.13* | FC(F)(F)Oc1ccc(Nc2ncc(Br)c(NC3CC3)n2)cc1Cl [compound 753]
17 | 2.7* | Brc1ccc(Nc2ncc(Br)c(NC3CC3)n2)cc1 [compound 743]
18 | 2.11* | CC(C)C(=O)Nc1ccc(Nc2ncc(C(F)(F)F)c(NC3CC3)n2)cc1 [compound 663]
19 | 4.56* | FC(F)(F)c1cc(Nc2ncc(Cl)c(NC3CC3)n2)cc(C(F)(F)F)c1 [compound 903]
20 | 2.16* | N#CCC(=O)c1ccc(Nc2ncc(Br)c(NC3CC3)n2)cc1 [compound 759]
21 | 4.87* | Clc1ccc(Oc2ccccc2)c(Nc2ncc(Cl)c(NC3CC3)n2)c1 [compound 873]
22 | 3.14* | Clc1cnc(Nc2ccccc2Oc2ccccc2)nc1NC1CC1 [compound 901]
23 | 1.39* | Oc1cccc(Nc2ncc(Br)c(NC3CC3)n2)c1 [compound 765]
24 | 3.03* | Brc1cnc(Nc2ccccc2)nc1NC1(COc2ccccc2)CC1 [compound 932]
25 | 1.66* | N#CCc1cccc(Nc2ncc(Cl)c(NC3CC3)n2)c1 [compound 712]
26 | 2.06* | CCOC(=O)Cc1ccc(Nc2ncc(Br)c(NC3CC3)n2)cc1 [compound 758]
27 | 1.44* | CN(C=O)c1ccc(Nc2ncc(Cl)c(NC3CC3)n2)cc1 [compound 978]
28 | 1.63* | COc1ccc(Nc2ncc(Cl)c(NCC3CC3)n2)cc1OC [compound 686]

same assay, conditions: HPLC on reversed-phase C18, method *: 40° C.; mobile phase 0.1% aqueous formic acid and acetonitrile; linear gradient 10% to 95% acetonitrile

Row | logP | Structure (SMILES)
29 | 1.9* | COc1cccc(Nc2ncc(Br)c(NC3CC3)n2)c1 [compound 343]
30 | 2.14* | CC(C)(C)C(=O)Nc1cccc(Nc2ncc(Cl)c(NCC3CC3)n2)c1 [compound 312]
31 | 2.77* | Clc1cccc(Nc2ncc(Br)c(NC3CC3)n2)c1 [compound 359]
32 | 3.18* | FC(F)(F)Oc1cccc(Nc2ncc(Cl)c(NC3CC3)n2)c1 [compound 300]
33 | 2.02* | CC(C)(C)OC(=O)NCc1ccc(Nc2ncc(Br)c(NC3CC3)n2)cc1 [compound 329]
34 | 2.11* | CC(C)OC(=O)Nc1cccc(Nc2ncc(Br)c(NC3CC3)n2)c1 [compound 331]
35 | 1.73* | COC(=O)Cc1cccc(Nc2ncc(Cl)c(NC3CC3)n2)c1 [compound 290]
36 | 3.42* | CC1(c2ccc(Nc3ncc(Cl)c(NC4CC4)n3)cc2)CCCC1 [compound 310]
37 | 2.8* | CC(C)c1cccc(Nc2ncc(Br)c(NC3CC3)n2)c1 [compound 363]

same assay, conditions: HPLC on reversed-phase C18 column (EEC Directive 79/831 Annex V.A8); method *: 40° C.; 0.1% aqueous formic acid and acetonitrile; linear gradient 10% to 95% acetonitrile

Row | logP | Structure (SMILES)
38 | 3.41* | CSc1cccc(Nc2ncc(C(F)(F)F)c(NCC3CC3)n2)c1 [compound 208]
39 | 0.92* | Clc1cnc(Nc2ccc(NC3CC3)nc2)nc1NC1CC1 [compound 186]
40 | 1.09* | Cc1cc(Nc2ncc(Cl)c(NC3CC3)n2)ccc1O [compound 180]
41 | 2.77* | CC(=O)c1cccc(Nc2ncc(C(F)(F)F)c(NCC3CC3)n2)c1 [compound 211]
42 | 2.26* | CN(C)S(=O)(=O)Oc1cccc(Nc2ncc(Cl)c(NC3CC3)n2)c1 [compound 244]
43 | 2.24* | O=S(=O)(Cc1cccc(Nc2ncc(Cl)c(NC3CC3)n2)c1)N1CCCCC1 [compound 262]

same assay, conditions: HPLC reversed-phase C 18, EEC Directive 79/831 Annex V.A8; method *: 40° C., 0.1% aqueous formic acid and acetonitrile, linear gradient 10% to 95% acetonitrile

Row | logP | Structure (SMILES)
44 | 1.33* | COCC(=O)Nc1cccc(Nc2ncc(Cl)c(NC3CC3)n2)c1 [compound 793]
45 | 1.51* | O=C1OCCN1c1cccc(Nc2ncc(Br)c(NC3CC3)n2)c1 [compound 842]
46 | 2.63* | CSC(C)c1cccc(Nc2ncc(Br)c(NC3CC3)n2)c1 (centres unmarked) [compound 811]
47 | 3.95* | CSC(C)c1cccc(Nc2ncc(C(F)(F)F)c(NCC3CC3)n2)c1 (centres unmarked) [compound 827]
48 | 3.14* | CC(C)(C)c1cccc(Nc2ncc(Br)c(NC3CC3)n2)c1 [compound 779]
49 | 2.44* | CSc1cccc(Nc2ncc(I)c(NC3CC3)n2)c1 [compound 858]
50 | 1.79* | Cc1ccc(Nc2ncc(Cl)c(NC3CC3)n2)cc1CC#N [compound 819]

same assay, conditions: method **: HPLC reversed-phase C 18, 43° C., 0.1% aqueous phosphoric acid and acetonitrile, linear gradient 10% to 95% acetonitrile

Row | logP | Structure (SMILES)
51 | 1.75** | CS(=O)(=O)c1ccc(Nc2ncc(Cl)c(NC3CC3)n2)cc1 [Example 50]
52 | 1.55** | O=C(O)c1ccc(Nc2ncc(Cl)c(NC3CC3)n2)cc1 [Example 35]
53 | 1.9** | O=C1CCCN1c1cc(Nc2ncc(Cl)c(NC3CC3)n2)ccc1Cl [compound 368]
54 | 2.48** | NS(=O)(=O)c1cc(Nc2ncc(Cl)c(NC3CC3)n2)cc(C(F)(F)F)c1 [compound 17]

same assay, conditions: method **: HPLC reversed-phase C 18, temperature 43° C.; mobile phase 0.1% aqueous phosphoric acid and acetonitrile; linear gradient 10% to 95% acetonitrile

Row | logP | Structure (SMILES)
55 | 1.32** | CC(C)NC(=O)Nc1ccc(Nc2ncc(Cl)c(NC3CC3)n2)cc1 [compound 632]
56 | 2.06** | COC(=O)Nc1cccc(Nc2ncc(C(F)(F)F)c(NC3CC3)n2)c1 [compound 660]

same assay, conditions: method **: HPLC, reversed-phase C 18, 43° C., mobile phase 0.1% aqueous phosphoric acid and acetonitrile, linear gradient from 10% to 95% acetonitrile

Row | logP | Structure (SMILES)
57 | 2** | CC1CC1Nc1nc(Nc2ccccc2)ncc1Cl (centres unmarked) [compound 1008]
58 | 2.31** | Clc1cnc(Nc2cccc(CBr)c2)nc1NC1CC1 [compound 1023]
59 | 4.07** | COCc1cccc(Nc2ncc(Cl)c(N(Cc3ccc(OC)cc3)C3CC3)n2)c1 [compound 1044]

same assay, conditions: method *: HPLC reversed-phase C18, 40° C., 0.1% aqueous formic acid and acetonitrile, linear gradient 10% to 95% acetonitrile

Row | logP | Structure (SMILES)
60 | 1.47* | COc1cc(Nc2ncc(C)c(NC3CC3)n2)cc(OC)c1OC [compound 52]
61 | 2.15* | O=S(=O)(Cc1cccc(Nc2ncc(Cl)c(NC3CC3)n2)c1)Nc1ccccc1 [compound 370]
62 | 1.55* | FC(F)(F)c1nc2ccc(Nc3ncc(Cl)c(NC4CC4)n3)cc2[nH]1 [Example 68]
63 | 1.58* | CNC(=O)c1ccc(Nc2ncc(Br)c(NCC3CC3)n2)cc1 [compound 424]
64 | 2.23* | COC(=O)c1ccc(Nc2ncc(Cl)c(NC3CC3)n2)cc1 [Example 37]

Row | Structure (SMILES) | logP
65 | CNC(=O)Oc1cccc(Nc2ncc(Br)c(NC3CC3)n2)c1 [compound 386] | 1.56*

same assay, conditions: method *: HPLC reversed-phase C 18, temperature 40° C.; mobile phase 0.1% aqueous formic acid and acetonitrile; linear gradient 10% to 95% acetonitrile

Row | logP | Structure (SMILES)
66 | 1.38* | CS(=O)(=O)Cc1cccc(Nc2ncc(Cl)c(NCC3CC3)n2)c1 [compound 566]
67 | 1.51* | COc1cccc(Nc2ncc(F)c(NC3CC3)n2)c1 [compound 573]
68 | 1.58* | CN1CCN(c2cccc(Nc3ncc(Cl)c(NCC4CC4)n3)c2)C1=O [compound 618]
69 | 2.16*; | COC(=O)Nc1cccc(Nc2ncc(C(F)(F)F)c(NC3CC3)n2)c1 [compound 660]
70 | 1.46* | CCOC(=O)Nc1ccc(Nc2ncc(F)c(NC3CC3)n2)cc1 [compound 595]

Row | Structure (SMILES) | logP
71 | CNC(=O)Oc1cccc(Nc2ncc(C#N)c(NC3CC3)n2)c1 [compound 611] | 1.92*

same assay, conditions: method *: HPLC, reversed-phase C 18, 40° C., mobile phase 0.1% aqueous formic acid and acetonitrile, linear gradient from 10% to 95% acetonitrile

Row | logP | Structure (SMILES)
72 | 1.56* | CCN(C)C(=O)c1cccc(Nc2ncc(Cl)c(NC3CC3)n2)c1 [compound 1060]
73 | 4.92* | CCC(CC)c1ccc(Nc2ncc(C(F)(F)F)c(NC3CC3)n2)cc1 [compound 1032]
74 | 4.37* | CCSC(C)c1cccc(Nc2ncc(C(F)(F)F)c(NCC3CC3)n2)c1 (centres unmarked) [compound 988]
75 | 4.6* | FC(F)(F)c1cc(Br)cc(Nc2ncc(Cl)c(NC3CC3)n2)c1 [compound 998]
76 | 0.53* | O=C(c1cccc(Nc2ncc(Cl)c(NC3CC3)n2)c1)N1CCNCC1 [compound 1065]
77 | 3.25* | CCCS(=O)(=O)c1cccc(Nc2ncc(C(F)(F)F)c(NCC3CC3)n2)c1 [compound 1068]
78 | 3.65* | CCc1cccc(Nc2ncc(Cl)c(N(C)C3CC3)n2)c1 [compound 1058]
79 | 2.78* | COCCOc1cccc(Nc2ncc(C(F)(F)F)c(NC3CC3)n2)c1 [compound 1041]

same assay, conditions: pH 2.3; read-out: logP (pH2.3)

Row | chromatographic logP | Structure (SMILES)
80 | 2.51 | Clc1ncc(Cl)c(NCC2CC2)n1 [2,5-dichloro-N-(cyclopropylmethyl)pyrimidine-4-amine]

From patent US20100081679A1, “DIAMINOPYRIMIDINES AS FUNGICIDES” (Bayer CropScience AG, priority 2007, published 2010)
